The values that follow come from patent US12049450B2, “Pyridyloxy-carboxylate derivative and preparation method therefor, herbicidal composition, and use” (Qingdao Kingagroot Chemical Compound Co., Ltd., priority 2018, dated 2024).

What all share (experiment): Post-emergence test experiment (greenhouse pot, spray at 2-3 leaf stage)
What all share (assay type): in vivo
What all share (conditions): 1000 g/ha; post-emergence spray at 2-3 leaf stage; assessed after 3 weeks; fresh weight inhibition rate

For assay [1], the system named is Abutilon theophrasti. An outline of the steps:
(§1)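 Activity graded levels 0-5 by fresh-weight inhibition (level 5 above 85%, level 0 below 5%), assessed 3 weeks after treatment. Plants grown in greenhouse pots were sprayed post-emergence at 2-3 leaves using acetone/tween-80 solutions with methyl oleate synergist (1.5 L/ha).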

The subject of assay [2] is Galium spurium. An outline of the steps: as §1
Assay [3] concerns Echinochloa crusgalli. The procedure, abridged: as §1
In assay [4] the test system is Monochoria vaginalis. The procedure, abridged:
as §1

The subject of assay [5] is Digitaria sanguinalis. An outline of the steps: as §1

For the compound `CC(Oc1nc(F)c(Cl)c(N)c1Cl)C(=O)OCc1cnco1` (stereo not drawn) [Compound 141], the “Activity level (growth inhibition rate) Abutilon theophrasti” value in assay [1] is listed as 5 (Level 5: the growth inhibition rate is greater than 85%). The “Activity level (growth inhibition rate) Galium spurium” value in assay [2] was 5 (Level 5: the growth inhibition rate is greater than 85%). In assay [3], the “Activity level (growth inhibition rate) Echinochloa crusgalli” value was 5 (Level 5: the growth inhibition rate is greater than 85%). Also, in assay [4], the “Activity level (growth inhibition rate) Monochoria Vaginalis” value is on record as 5 (Level 5: the growth inhibition rate is greater than 85%). Besides, in assay [5], the “Activity level (growth inhibition rate) Digitaria sanguinalis” value is 5 (Level 5: the growth inhibition rate is greater than 85%).

As to `CC(Oc1nc(F)c(Cl)c(N)c1Cl)C(=O)SCCc1cocn1` (stereo not drawn) [Compound 142], the “Activity level (growth inhibition rate) Abutilon theophrasti” value in assay [1] is reported as 5 (Level 5: the growth inhibition rate is greater than 85%). In addition, the “Activity level (growth inhibition rate) Galium spurium” value in assay [2] is listed as 5 (Level 5: the growth inhibition rate is greater than 85%). In assay [3], the “Activity level (growth inhibition rate) Echinochloa crusgalli” value is 5 (Level 5: the growth inhibition rate is greater than 85%). Moreover, the “Activity level (growth inhibition rate) Monochoria Vaginalis” value in assay [4] is 5 (Level 5: the growth inhibition rate is greater than 85%). In assay [5], the “Activity level (growth inhibition rate) Digitaria sanguinalis” value is recorded as 5 (Level 5: the growth inhibition rate is greater than 85%).

On to `CC(Oc1nc(F)c(Cl)c(N)c1Cl)C(=O)OCc1ncco1` (stereo not drawn) [Compound 143], for which, in assay [1], the “Activity level (growth inhibition rate) Abutilon theophrasti” value was 5 (Level 5: the growth inhibition rate is greater than 85%). The “Activity level (growth inhibition rate) Galium spurium” value in assay [2] is 5 (Level 5: the growth inhibition rate is greater than 85%). Besides, the “Activity level (growth inhibition rate) Echinochloa crusgalli” value in assay [3] is listed as 5 (Level 5: the growth inhibition rate is greater than 85%). The “Activity level (growth inhibition rate) Monochoria Vaginalis” value in assay [4] is 5 (Level 5: the growth inhibition rate is greater than 85%). The “Activity level (growth inhibition rate) Digitaria sanguinalis” value in assay [5] is recorded as 5 (Level 5: the growth inhibition rate is greater than 85%).

Turning to `CC(Oc1nc(F)c(Cl)c(N)c1Cl)C(=O)OCc1ccno1` (stereo not drawn) [Compound 144], in assay [1], the “Activity level (growth inhibition rate) Abutilon theophrasti” value is recorded as 5 (Level 5: the growth inhibition rate is greater than 85%). The “Activity level (growth inhibition rate) Galium spurium” value in assay [2] is 5 (Level 5: the growth inhibition rate is greater than 85%). Further, the “Activity level (growth inhibition rate) Echinochloa crusgalli” value in assay [3] is 5 (Level 5: the growth inhibition rate is greater than 85%). Further, in assay [4], the “Activity level (growth inhibition rate) Monochoria Vaginalis” value is 5 (Level 5: the growth inhibition rate is greater than 85%). The “Activity level (growth inhibition rate) Digitaria sanguinalis” value in assay [5] is recorded as 5 (Level 5: the growth inhibition rate is greater than 85%).

Take `CC(Oc1nc(F)c(Cl)c(N)c1Cl)C(=O)SCc1ccon1` (stereo not drawn) [Compound 145]: in assay [1], the “Activity level (growth inhibition rate) Abutilon theophrasti” value was 5 (Level 5: the growth inhibition rate is greater than 85%). For the same compound, in assay [2], the “Activity level (growth inhibition rate) Galium spurium” value is reported as 5 (Level 5: the growth inhibition rate is greater than 85%). In assay [3], the “Activity level (growth inhibition rate) Echinochloa crusgalli” value is on record as 5 (Level 5: the growth inhibition rate is greater than 85%). In addition, the “Activity level (growth inhibition rate) Monochoria Vaginalis” value in assay [4] is 5 (Level 5: the growth inhibition rate is greater than 85%). Moreover, in assay [5], the “Activity level (growth inhibition rate) Digitaria sanguinalis” value was 5 (Level 5: the growth inhibition rate is greater than 85%).

For the compound `CC(Oc1nc(F)c(Cl)c(N)c1Cl)C(=O)OCc1cnoc1` (stereo not drawn) [Compound 146], in assay [1], the “Activity level (growth inhibition rate) Abutilon theophrasti” value is 5 (Level 5: the growth inhibition rate is greater than 85%). Besides, the “Activity level (growth inhibition rate) Galium spurium” value in assay [2] was 5 (Level 5: the growth inhibition rate is greater than 85%). Moreover, the “Activity level (growth inhibition rate) Echinochloa crusgalli” value in assay [3] is listed as 5 (Level 5: the growth inhibition rate is greater than 85%). The “Activity level (growth inhibition rate) Monochoria Vaginalis” value in assay [4] is reported as 5 (Level 5: the growth inhibition rate is greater than 85%). Also, the “Activity level (growth inhibition rate) Digitaria sanguinalis” value in assay [5] is 5 (Level 5: the growth inhibition rate is greater than 85%).

As to `Cc1noc(C)c1COC(=O)C(C)Oc1nc(F)c(Cl)c(N)c1Cl` (stereo not drawn) [Compound 147], the “Activity level (growth inhibition rate) Abutilon theophrasti” value in assay [1] is listed as 5 (Level 5: the growth inhibition rate is greater than 85%). The “Activity level (growth inhibition rate) Galium spurium” value in assay [2] is on record as 5 (Level 5: the growth inhibition rate is greater than 85%). For the same compound, the “Activity level (growth inhibition rate) Echinochloa crusgalli” value in assay [3] is recorded as 5 (Level 5: the growth inhibition rate is greater than 85%). The “Activity level (growth inhibition rate) Monochoria Vaginalis” value in assay [4] is given as 5 (Level 5: the growth inhibition rate is greater than 85%). For the same compound, the “Activity level (growth inhibition rate) Digitaria sanguinalis” value in assay [5] is listed as 5 (Level 5: the growth inhibition rate is greater than 85%).

On to `CC(Oc1nc(F)c(Cl)c(N)c1Cl)C(=O)OCCc1nnco1` (stereo not drawn) [Compound 148], for which the “Activity level (growth inhibition rate) Abutilon theophrasti” value in assay [1] is recorded as 5 (Level 5: the growth inhibition rate is greater than 85%). In addition, the “Activity level (growth inhibition rate) Galium spurium” value in assay [2] is 5 (Level 5: the growth inhibition rate is greater than 85%). In assay [3], the “Activity level (growth inhibition rate) Echinochloa crusgalli” value was 5 (Level 5: the growth inhibition rate is greater than 85%). Besides, the “Activity level (growth inhibition rate) Monochoria Vaginalis” value in assay [4] was 5 (Level 5: the growth inhibition rate is greater than 85%). Besides, in assay [5], the “Activity level (growth inhibition rate) Digitaria sanguinalis” value was 5 (Level 5: the growth inhibition rate is greater than 85%).

For `CC(Oc1nc(F)c(Cl)c(N)c1Cl)C(=O)SCc1nnco1` (stereo not drawn) [Compound 149], the “Activity level (growth inhibition rate) Abutilon theophrasti” value in assay [1] was 5 (Level 5: the growth inhibition rate is greater than 85%). Moreover, the “Activity level (growth inhibition rate) Galium spurium” value in assay [2] is recorded as 5 (Level 5: the growth inhibition rate is greater than 85%). In assay [3], the “Activity level (growth inhibition rate) Echinochloa crusgalli” value was 5 (Level 5: the growth inhibition rate is greater than 85%). Moreover, in assay [4], the “Activity level (growth inhibition rate) Monochoria Vaginalis” value is recorded as 5 (Level 5: the growth inhibition rate is greater than 85%). Further, the “Activity level (growth inhibition rate) Digitaria sanguinalis” value in assay [5] is reported as 5 (Level 5: the growth inhibition rate is greater than 85%).

Consider `CC(Oc1nc(F)c(Cl)c(N)c1Cl)C(=O)SC(C)c1ncon1` (stereo not drawn) [Compound 150], for which the “Activity level (growth inhibition rate) Abutilon theophrasti” value in assay [1] is reported as 5 (Level 5: the growth inhibition rate is greater than 85%). Also, the “Activity level (growth inhibition rate) Galium spurium” value in assay [2] is recorded as 5 (Level 5: the growth inhibition rate is greater than 85%). Also, the “Activity level (growth inhibition rate) Echinochloa crusgalli” value in assay [3] is listed as 5 (Level 5: the growth inhibition rate is greater than 85%). Besides, the “Activity level (growth inhibition rate) Monochoria Vaginalis” value in assay [4] is given as 5 (Level 5: the growth inhibition rate is greater than 85%). Besides, the “Activity level (growth inhibition rate) Digitaria sanguinalis” value in assay [5] is given as 5 (Level 5: the growth inhibition rate is greater than 85%).

Consider `CC(Oc1nc(F)c(Cl)c(N)c1Cl)C(=O)OCc1ncno1` (stereo not drawn) [Compound 151], for which, in assay [1], the “Activity level (growth inhibition rate) Abutilon theophrasti” value was 5 (Level 5: the growth inhibition rate is greater than 85%). Further, the “Activity level (growth inhibition rate) Galium spurium” value in assay [2] is given as 5 (Level 5: the growth inhibition rate is greater than 85%). Also, the “Activity level (growth inhibition rate) Echinochloa crusgalli” value in assay [3] was 5 (Level 5: the growth inhibition rate is greater than 85%). Further, the “Activity level (growth inhibition rate) Monochoria Vaginalis” value in assay [4] is 5 (Level 5: the growth inhibition rate is greater than 85%). In addition, the “Activity level (growth inhibition rate) Digitaria sanguinalis” value in assay [5] is 5 (Level 5: the growth inhibition rate is greater than 85%).

In the case of `CC(Oc1nc(F)c(Cl)c(N)c1Cl)C(=O)SCCc1cnno1` (stereo not drawn) [Compound 152], the “Activity level (growth inhibition rate) Abutilon theophrasti” value in assay [1] is listed as 5 (Level 5: the growth inhibition rate is greater than 85%). For the same compound, in assay [2], the “Activity level (growth inhibition rate) Galium spurium” value is listed as 5 (Level 5: the growth inhibition rate is greater than 85%). In assay [3], the “Activity level (growth inhibition rate) Echinochloa crusgalli” value is 5 (Level 5: the growth inhibition rate is greater than 85%). Besides, the “Activity level (growth inhibition rate) Monochoria Vaginalis” value in assay [4] is recorded as 5 (Level 5: the growth inhibition rate is greater than 85%). The “Activity level (growth inhibition rate) Digitaria sanguinalis” value in assay [5] is given as 5 (Level 5: the growth inhibition rate is greater than 85%).

On to `CC(Oc1nc(F)c(Cl)c(N)c1Cl)C(=O)OCc1conn1` (stereo not drawn) [Compound 153], for which the “Activity level (growth inhibition rate) Abutilon theophrasti” value in assay [1] is given as 5 (Level 5: the growth inhibition rate is greater than 85%). The “Activity level (growth inhibition rate) Galium spurium” value in assay [2] was 5 (Level 5: the growth inhibition rate is greater than 85%). For the same compound, the “Activity level (growth inhibition rate) Echinochloa crusgalli” value in assay [3] is listed as 5 (Level 5: the growth inhibition rate is greater than 85%). In addition, the “Activity level (growth inhibition rate) Monochoria Vaginalis” value in assay [4] is 5 (Level 5: the growth inhibition rate is greater than 85%). Moreover, the “Activity level (growth inhibition rate) Digitaria sanguinalis” value in assay [5] is listed as 5 (Level 5: the growth inhibition rate is greater than 85%).

Take `CC(Oc1nc(F)c(Cl)c(N)c1Cl)C(=O)SCc1cccs1` (stereo not drawn) [Compound 154]: the “Activity level (growth inhibition rate) Abutilon theophrasti” value in assay [1] is listed as 5 (Level 5: the growth inhibition rate is greater than 85%). Besides, the “Activity level (growth inhibition rate) Galium spurium” value in assay [2] was 5 (Level 5: the growth inhibition rate is greater than 85%). Also, the “Activity level (growth inhibition rate) Echinochloa crusgalli” value in assay [3] is reported as 5 (Level 5: the growth inhibition rate is greater than 85%). For the same compound, the “Activity level (growth inhibition rate) Monochoria Vaginalis” value in assay [4] is recorded as 5 (Level 5: the growth inhibition rate is greater than 85%). In addition, the “Activity level (growth inhibition rate) Digitaria sanguinalis” value in assay [5] is on record as 5 (Level 5: the growth inhibition rate is greater than 85%).

Regarding `Cc1sc(C)c(COC(=O)C(C)Oc2nc(F)c(Cl)c(N)c2Cl)c1C` (stereo not drawn) [Compound 155], in assay [1], the “Activity level (growth inhibition rate) Abutilon theophrasti” value was 5 (Level 5: the growth inhibition rate is greater than 85%). Besides, in assay [2], the “Activity level (growth inhibition rate) Galium spurium” value is 5 (Level 5: the growth inhibition rate is greater than 85%). Besides, the “Activity level (growth inhibition rate) Echinochloa crusgalli” value in assay [3] is on record as 5 (Level 5: the growth inhibition rate is greater than 85%). Also, the “Activity level (growth inhibition rate) Monochoria Vaginalis” value in assay [4] is 5 (Level 5: the growth inhibition rate is greater than 85%). In assay [5], the “Activity level (growth inhibition rate) Digitaria sanguinalis” value was 5 (Level 5: the growth inhibition rate is greater than 85%).
